Data published in patent publication US20230167073A1 (Teijin Pharma Limited, priority 2020, published 2023).

The molecules below were run against T1, Human TRPC6 (Homo sapiens, UniProt Q9Y210) (assay: Evaluation of TRPC6 channel inhibitory activity (1), FLIPR Calcium 5 Assay Kit, OAG stimulation (Compound Nos. 1-1293)). Settings: Human TRPC6 stably-expressing cells, OAG 30 μM, FLIPR Calcium 5 Assay Kit; read-out: Inhibitory activity (pIC50 class) (converted).
T1 construct: expressed in transfected cells
T1 sequence (Q9Y210 1-931): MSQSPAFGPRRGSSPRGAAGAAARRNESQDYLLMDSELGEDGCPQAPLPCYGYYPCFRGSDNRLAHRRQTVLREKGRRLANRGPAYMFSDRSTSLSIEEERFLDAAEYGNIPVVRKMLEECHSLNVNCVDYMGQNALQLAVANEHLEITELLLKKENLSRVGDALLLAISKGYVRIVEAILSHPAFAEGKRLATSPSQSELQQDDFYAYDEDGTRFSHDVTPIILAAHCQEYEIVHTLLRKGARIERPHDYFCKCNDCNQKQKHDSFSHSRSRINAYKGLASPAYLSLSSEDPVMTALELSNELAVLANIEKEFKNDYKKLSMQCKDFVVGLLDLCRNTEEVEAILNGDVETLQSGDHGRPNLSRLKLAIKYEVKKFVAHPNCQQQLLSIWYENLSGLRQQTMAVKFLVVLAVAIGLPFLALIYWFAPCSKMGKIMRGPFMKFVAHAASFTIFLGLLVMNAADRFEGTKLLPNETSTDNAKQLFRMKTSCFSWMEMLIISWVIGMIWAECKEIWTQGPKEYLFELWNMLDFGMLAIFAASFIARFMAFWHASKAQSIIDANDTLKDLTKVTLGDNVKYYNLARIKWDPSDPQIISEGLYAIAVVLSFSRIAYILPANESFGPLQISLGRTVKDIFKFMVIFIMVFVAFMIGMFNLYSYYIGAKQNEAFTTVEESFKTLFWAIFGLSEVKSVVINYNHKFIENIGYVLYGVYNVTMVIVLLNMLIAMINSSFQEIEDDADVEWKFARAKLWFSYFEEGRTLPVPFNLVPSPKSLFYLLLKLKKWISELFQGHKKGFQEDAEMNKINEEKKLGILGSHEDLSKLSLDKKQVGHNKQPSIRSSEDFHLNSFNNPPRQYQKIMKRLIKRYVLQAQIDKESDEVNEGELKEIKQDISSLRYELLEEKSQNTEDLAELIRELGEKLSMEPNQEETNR
Format: cell-based
How it was run: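 TRPC6 (human) stable cells, 24 h culture; Ca5 no-wash dye + probenecid 30 min; cpd 20 min; OAG 30 μM final; ΔF (pre-cpd min to post-OAG max); 0%/100% = no cpd / no cpd + no OAG; 4PL → pIC50, binned +/++/+++.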

Compared with `Cc1nc(Oc2cc(F)ccc2-c2ccc(CCN)cn2)cc(N2CCOCC2)n1` [compound 1001, 2-[6-[4-fluoro-2-(2-methyl-6-morpholin-4-ylpyrimidin-4-yl)oxyphenyl]pyridin-3-yl]ethanamine], `Cc1nc(Oc2cc(F)ccc2-c2ccc(CN)cn2)cc(N2CCOCC2)n1` [compound 1003, [6-[4-fluoro-2-(2-methyl-6-morpholin-4-ylpyrimidin-4-yl)oxyphenyl]pyridin-3-yl]methanamine] is higher in IC50: under 10 nM for the first, 10 to 1000 nM for the second.

First: Cc1nc(Oc2cc(F)ccc2-c2ncc(CN)cn2)cc(N2CCOCC2)n1 [compound 1002, [2-[4-fluoro-2-(2-methyl-6-morpholin-4-ylpyrimidin-4-yl)oxyphenyl]pyrimidin-5-yl]methanamine]
Second: Cn1nc(C2CCOCC2)cc1Oc1cc(F)ccc1-c1ncc(CN)cn1 [compound 1007, [2-[4-fluoro-2-[2-methyl-5-(oxan-4-yl)pyrazol-3-yl]oxyphenyl]pyrimidin-5-yl]methanamine]
The IC50 of the first is higher: over 1000 nM for the first, 10 to 1000 nM for the second.

`NCCc1cnc(-c2ccc(F)cc2Oc2cnn(-c3ccccn3)c2)nc1` [compound 1004, 2-[2-[4-fluoro-2-(1-pyridin-2-ylpyrazol-4-yl)oxyphenyl]pyrimidin-5-yl]ethanamine] and `NCCc1cnc(-c2ccc(Cl)cc2Oc2cnn(-c3ccccn3)c2)nc1` [compound 1024, 2-[2-[4-chloro-2-(1-pyridin-2-ylpyrazol-4-yl)oxyphenyl]pyrimidin-5-yl]ethanamine] fall in the same range of IC50: 10 to 1000 nM for the first, 10 to 1000 nM for the second.

`NCCc1cnc(-c2ccc(F)cc2Oc2cnn(CC(F)F)c2)nc1` [compound 1005, 2-[2-[2-[1-(2,2-difluoroethyl)pyrazol-4-yl]oxy-4-fluorophenyl]pyrimidin-5-yl]ethanamine] and `NCCc1cnc(-c2ccc(Cl)cc2Oc2cnn(CC(F)F)c2)nc1` [compound 1022, 2-[2-[4-chloro-2-[1-(2,2-difluoroethyl)pyrazol-4-yl]oxyphenyl]pyrimidin-5-yl]ethanamine] cannot be ordered by IC50: over 1000 nM for the first, over 1000 nM for the second.

First: NCCc1ccc(-c2ccc(F)cc2Oc2cnnc(N3CCOCC3)c2)nc1 [compound 1006, 2-[6-[4-fluoro-2-(6-morpholin-4-ylpyridazin-4-yl)oxyphenyl]pyridin-3-yl]ethanamine]
Second: Cn1nc(C2CCOCC2)cc1Oc1cc(F)ccc1-c1ccc(CCN)cn1 [compound 1010, 2-[6-[4-fluoro-2-[2-methyl-5-(oxan-4-yl)pyrazol-3-yl]oxyphenyl]pyridin-3-yl]ethanamine]
The IC50 of the first is higher: 10 to 1000 nM for the first, under 10 nM for the second.

`Cn1nc(C2CCOCC2)cc1Oc1cc(F)ccc1-c1ccc(CN)cn1` [compound 1008, [6-[4-fluoro-2-[2-methyl-5-(oxan-4-yl)pyrazol-3-yl]oxyphenyl]pyridin-3-yl]methanamine] and `Cn1nc(C2CC2)cc1Oc1cc(F)ccc1-c1ccc(CN)cn1` [compound 1016, [6-[2-(5-cyclopropyl-2-methylpyrazol-3-yl)oxy-4-fluorophenyl]pyridin-3 - yl]methanamine] fall in the same range of IC50: 10 to 1000 nM for the first, 10 to 1000 nM for the second.

Compared with `Cn1nc(C2CCOCC2)cc1Oc1cc(F)ccc1-c1ncc(CCN)cn1` [compound 1009, 2-[2-[4-fluoro-2-[2-methyl-5-(oxan-4-yl)pyrazol-3-yl]oxyphenyl]pyrimidin-5-yl]ethanamine], `Cn1nc(C2CC2)cc1Oc1cc(F)ccc1-c1ncc(CCN)cn1` [compound 1017, 2-[2-[2-(5-cyclopropyl-2-methylpyrazol-3-yl)oxy-4-fluorophenyl]pyrimidin-5-yl]ethanamine] is lower in IC50: 10 to 1000 nM for the first, under 10 nM for the second.

`CC(C)c1cc(Oc2cc(F)ccc2-c2ccc(CN)cn2)n(C)n1` [compound 1011, [6-[4-fluoro-2-(2-methyl-5-propan-2-ylpyrazol-3-yl)oxyphenyl]pyridin-3-yl]methanamine] and `CC(C)c1cc(Oc2cc(F)ccc2-c2ccc(CCN)cn2)n(C)n1` [compound 1014, 2-[6-[4-fluoro-2-(2-methyl-5-propan-2-ylpyrazol-3-yl)oxyphenyl]pyridin-3-yl]ethanamine] cannot be ordered by IC50: under 10 nM for the first, under 10 nM for the second.

`CC(C)c1cc(Oc2cc(F)ccc2-c2ncc(CN)cn2)n(C)n1` [compound 1012, [2-[4-fluoro-2-(2-methyl-5-propan-2-ylpyrazol-3-yl)oxyphenyl]pyrimidin-5-yl]methanamine] and `CC(C)c1cc(Oc2cc(F)ccc2-c2ncc(CCN)cn2)n(C)n1` [compound 1013, 2-[2-[4-fluoro-2-(2-methyl-5-propan-2-ylpyrazol-3-yl)oxyphenyl]pyrimidin-5-yl]ethanamine] cannot be ordered by IC50: under 10 nM for the first, under 10 nM for the second.

First: Cn1nc(C2CC2)cc1Oc1cc(F)ccc1-c1ncc(CN)cn1 [compound 1015, [2-[2-(5-cyclopropyl-2-methylpyrazol-3-yl)oxy-4-fluorophenyl]pyrimidin-5-yl]methanamine]
Second: Cn1nc(C2CC2)cc1Oc1cc(F)ccc1-c1ccc(CCN)cn1 [compound 1018, 2-[6-[2-(5-cyclopropyl-2-methylpyrazol-3-yl)oxy-4-fluorophenyl]pyridin-3-yl]ethanamine]
The IC50 of the first is higher: 10 to 1000 nM for the first, under 10 nM for the second.

`NCCc1cnc(-c2ccc(F)cc2Oc2cnn(CC(F)(F)F)c2)nc1` [compound 1019, 2-[2-[4-fluoro-2-[1-(2,2,2-trifluoroethyl)pyrazol-4-yl]oxyphenyl]pyrimidin-5-yl]ethanamine] and `NCCc1cnc(-c2ccc(Cl)cc2Oc2cnn(CC(F)(F)F)c2)nc1` [compound 1023, 2-[2-[4-chloro-2-[1-(2,2,2-trifluoroethyl)pyrazol-4-yl]oxyphenyl]pyrimidin-5-yl]ethanamine] fall in the same range of IC50: 10 to 1000 nM for the first, 10 to 1000 nM for the second.

`CC(C)n1cc(Oc2cc(Cl)ccc2-c2ncc(CCN)cn2)cn1` [compound 1020, 2-[2-[4-chloro-2-(1-propan-2-ylpyrazol-4-yl)oxyphenyl]pyrimidin-5-yl]ethanamine] and `CC(C)Cn1cc(Oc2cc(Cl)ccc2-c2ncc(CCN)cn2)cn1` [compound 1021, 2-[2-[4-chloro-2-[1-(2-methylpropyl)pyrazol-4-yl]oxyphenyl]pyrimidin-5-yl]ethanamine] fall in the same range of IC50: 10 to 1000 nM for the first, 10 to 1000 nM for the second.

`CCc1cc(C(=O)c2cc(C#N)ccc2-c2ncc(CCN)cn2)n(C)n1` [compound 1025, 4-[5-(2-aminoethyl)pyrimidin-2-yl]-3-(5-ethyl-2-methylpyrazole-3-carbonyl)benzonitrile] and `CCc1cc(C(=O)c2cc(C#N)ccc2-c2ncc(CN)cn2)n(C)n1` [compound 1026, 4-[5-(aminomethyl)pyrimidin-2-yl]-3-(5-ethyl-2-methylpyrazole-3-carbonyl)benzonitrile] cannot be ordered by IC50: under 10 nM for the first, under 10 nM for the second.

`Cn1nc(N2CCOCC2)cc1C(=O)c1cc(C#N)ccc1-c1ncc(CCN)cn1` [compound 1027, 4-[5-(2-aminoethyl)pyrimidin-2-yl]-3-(2-methyl-5-morpholin-4-ylpyrazole-3-carbonyl)benzonitrile] and `Cn1nc(N2CCOCC2)cc1C(=O)c1cc(C#N)ccc1-c1ccc(CN)cn1` [compound 1029, 4-[5-(aminomethyl)pyridin-2-yl]-3-(2-methyl-5-morpholin-4-ylpyrazole-3-carbonyl)benzonitrile] cannot be ordered by IC50: under 10 nM for the first, under 10 nM for the second.

`Cn1nc(C(C)(C)C)cc1C(=O)c1cc(C#N)ccc1-c1ncc(CCN)cn1` [compound 1031, 4-[5-(2-aminoethyl)pyrimidin-2-yl]-3-(5-tert-butyl-2-methylpyrazole-3-carbonyl)benzonitrile] and `CCN(CC)c1cc(C(=O)c2cc(C#N)ccc2-c2ncc(CCN)cn2)n(C)n1` [compound 1032, 4-[5-(2-aminoethyl)pyrimidin-2-yl]-3-[5-(diethylamino)-2-methylpyrazole-3-carbonyl]benzonitrile] cannot be ordered by IC50: under 10 nM for the first, under 10 nM for the second.

`Cc1nn(CC2CC2)cc1C(=O)c1cc(C#N)ccc1-c1ncc(CCN)cn1` [compound 1033, 4-[5-(2-aminoethyl)pyrimidin-2-yl]-3-[1-(cyclopropylmethyl)-3-methylpyrazole-4-carbonyl]benzonitrile] and `Cc1nn(CC2CC2)cc1C(=O)c1cc(C#N)ccc1-c1ncc(CN)cn1` [compound 1035, 4-[5-(aminomethyl)pyrimidin-2-yl]-3-[1-(cyclopropylmethyl)-3-methylpyrazole-4-carbonyl]benzonitrile] cannot be ordered by IC50: under 10 nM for the first, under 10 nM for the second.

Molecule `Cc1c(C(=O)c2cc(C#N)ccc2-c2ncc(CCN)cn2)cnn1CC1CC1` [compound 1034, 4-[5-(2-aminoethyl)pyrimidin-2-yl]-3-[1-(cyclopropylmethyl)-5-methylpyrazole-4-carbonyl]benzonitrile] has an IC50 of 10 to 1000 nM.
